{"source": "paper PMC6234764", "about": "“First Insights Into Within Host Translocation of the Bacillus cereus Toxin Cereulide Using a Porcine Model” (Frontiers in Microbiology, 2018)", "key": {"[1]": {"assay": "Excretion of cereulide in feces and urine, SIDA-MS", "type": "in vivo, pig", "protocol": "(§1) A total of four experiments, each including four treated animals and one control pig, was performed to investigate the action of cereulide on piglets after oral intake of cereulide. Pigs were either challenged orally with a single dose (acute trials) or with daily over a period of 7 days (chronic trial) (see Table 1). One hour before cereulide toxin administration blood samples were taken by puncturing the anterior Vena cava and piglets were weighed for calculation of the cereulide concentration (t = 0 h). In the intoxication experiment with 150 μg kg^-1 blood samples were taken 68 h before the experiment to reduce the distress for the animals at the start day of the experiments. Blood-chemical, immunological, and histological analyses of selected organs as well as quantification of cereulide in organs, tissues, urine and feces were carried out as detailed below.\n(§2) On body weight calculated amounts of cereulide, dissolved in ethanol, were mixed with milk (UHT milk; 3.5% fat), and fed to four piglets. Control piglets were fed with milk supplemented with similar ethanol concentrations as the experimental piglets. The experiment started after the uptake of the whole milk cereulide mixture. The milk was checked for bacterial contamination prior to the experiment.\n(§3) After oral administration of cereulide, piglets were monitored for unusual behavior and examined physically with special respect on rectal body temperature as well as pulse and respiration rate, every 2–3 h. Blood samples were taken from the Vena cava cranialis. Urine and feces were collected during the whole experiment and stored at -80°C. After the experiment pigs were anaesthetized by intramuscular injection of a bolus of ketamine (10 mg kg^-1) and azaperone (1.3 mg kg^-1). When sedation was deep enough cerebrospinal fluid (liquor) was taken by lumbar puncture. Finally, pigs were euthanized by intracardial injection of T61®. Animals were then necropsied and parts of the following organs, tissues or body fluids were taken for SIDA-MS analysis: liver, lung, heart, kidney, brain, spleen, small and large intestine, lymph nodes, gastric as well as intestinal contents, skeletal muscle, and abdominal and subcutaneous fat. Samples of liver, lung, heart, kidney, brain, spleen, small, and large intestine were collected for histological analysis.\nCollected blood samples, urine, feces, tissue and organs were freeze dried and stored at -80°C until analysis. Before extraction, liquid nitrogen was added to frozen samples and they were crushed to a powder using a mortar. Ten microgram ^13C6-cereulide (for organs and feces) or 5 μg ^13C6-cereulide (for urine and blood) was added and samples were incubated on a rocking table for 2 h. Samples were solved in ethanol (volume depending on weight 10–40 mL), incubated 14 h, and the supernatants were collected by centrifugation (RT, 8500 g, 10 min). For pre-purification the ethanolic extract was 1:5 diluted with water and applied onto the top of a methanol activated C18-SPE cartridge (6 mL; 1 g; Strata C18-E; Phenomenex, Aschaffenburg, Germany). The cartridge was washed with 6 mL water followed by methanol/water (4 mL; 70/30, v/v) and target compounds were eluted with ethanol (2.5 mL). Finally, samples were membrane filtrated (0.2 μm; PTFE membrane; Phenomenex, Aschaffenburg, Germany) and analyzed by means of LC-MS/MS as described previously ([Bauer et al., 2010]). In brief, LC-MS/MS analysis was performed using an Agilent 1200 HPLC-system connected to the API 4000QTrap LC-MS/MS (Applied Biosystems, Darmstadt, Germany) running in the positive electrospray ionization (ESI^+, +5500 V) mode. Zero grade air served as nebulizer gas (45 psi) and turbo gas (425°C) for solvent drying (55 psi), nitrogen was used as curtain (20 psi) and collision gas (8.7 × 10^-7 psi), respectively. Both quadrapoles were set at unit resolution. […]"}, "Large White piglets": {"test_system": "Large White piglets", "assay": "Clinical signs after oral administration of cereulide", "type": "in vivo, pig", "protocol": "In each experiment five Large White piglets, weighing 10–15 kg, were used. All piglets were derived from one single farm in Austria. The animals were placed in metabolic cages 3 days before start of the experiment for acclimatization. Water ad libitum and feed (Ferkelkorn, Garant Tiernahrung, Pöchlarn, Austria) were available before and during the whole experiment.\nas §1, §2, §3"}, "[2]": {"test_system": "Min6 cells and whole mouse pancreatic islets", "conditions": "ref Vangoitsenhoven et al., 2014; cited from earlier work", "protocol": "Low concentrations of cereulide can cause dysfunction in beta-cell lines ([Vangoitsenhoven et al., 2014]) and have been reported to be detrimental toward isolated porcine pancreatic Langerhans islets ([Virtanen et al., 2008]). Using Min6 cells and whole mouse pancreatic islets as model, it could be shown that low concentrations of cereulide (0.25–0.5 ng/mL) are directly effecting the insulin secretory machinery ([Vangoitsenhoven et al., 2014]). Based on their in vitro findings the authors hypothesized that cereulide may contribute to the rise of prevalence of diabetes observed worldwide, as a ..."}, "[3]": {"conditions": "ref Andersson et al., 2007; cited from earlier work", "protocol": "Due to the lipophilic character of cereulide (log Kow 5.96) ([Andersson et al., 2007]), it could be assumed that part of the ingested cereulide adheres to digested food and is rapidly excreted via feces. Indeed, as shown in our porcine model, within the first 48 h 10–15% of the cereulide toxin orally administered is shed with feces. Cereulide was already detected in feces a few hours after toxin administration, which allows an early, non-invasive identification of cereulide intoxications. Even in case of the low dose of cereulide used in the chronic trial (10 μg cereulide kg^-1) cereulide coul ..."}, "[4]": {"conditions": "ref Ehling-Schulz et al., 2004, Rajkovic et al., 2008, cited from earlier work", "from_the_text": "The reported incidence of foodborne outbreaks caused by Bacillus toxins is steadily increasing worldwide throughout the last decade. For instance, in the European Union about 600–700 confirmed cases of foodborne outbreaks linked to B. cereus toxins are annually reported ([Messelhäußer and Ehling-Schulz, 2018]). Due to the rise of reports on severe intoxications, the Bacillus cereus toxin cereulide is of special concern. Cereulide is a small dodecadepsipeptide toxin that evokes emesis a short time after ingestion of contaminated food ([Agata et al., 1995]). Usally the disease is self limiting b ..."}, "[5]": {"conditions": "daily oral dose 10 μg kg^-1 over 7 days"}, "[6]": {"conditions": "oral doses 10 to 150 μg kg^-1, summary in discussion"}}}
{"smiles": "CC(C)C[C@H]1OC(=O)[C@H](C(C)C)NC(=O)[C@H](C(C)C)OC(=O)[C@@H](C)NC(=O)[C@@H](CC(C)C)OC(=O)[C@H](C(C)C)NC(=O)[C@H](C(C)C)OC(=O)[C@@H](C)NC(=O)[C@@H](CC(C)C)OC(=O)[C@H](C(C)C)NC(=O)[C@H](C(C)C)OC(=O)[C@@H](C)NC1=O", "note": "[cereulide]", "values": [{"measurement": "Cereulide concentration in feces", "setting": "[1]; daily oral dose 10 μg kg^-1, until end of trial on day 7", "result": "0.02 to 0.29", "unit": "μg cereulide g^-1 feces"}, {"measurement": "Detectability of cereulide in urine", "setting": "[1]; [5]", "result": "no cereulide was detectable"}, {"measurement": "Time until cereulide became detectable in fecal samples", "setting": "[1]; [5]", "result": "2 to 3", "unit": "days"}, {"measurement": "Amount of cereulide excreted with the feces", "setting": "[1]; one pig (13 kg), 30 μg kg^-1 (total intake 390 μg), after 12 h", "result": 20.90, "unit": "µg"}, {"measurement": "Amount of cereulide excreted with the feces", "setting": "[1]; one pig (13 kg), 30 μg kg^-1 (total intake 390 μg), after 24 h", "result": 26.80, "unit": "µg"}, {"measurement": "Amount of cereulide excreted with the feces", "setting": "[1]; one pig (13 kg), 30 μg kg^-1 (total intake 390 μg), after 48 h", "result": 1.38, "unit": "µg"}, {"measurement": "Total amount of cereulide excreted with the feces", "setting": "[1]; one pig (13 kg), 30 μg kg^-1 (total intake 390 μg), in 33.6 g feces over 48 h", "result": 49.08, "unit": "µg"}, {"measurement": "Cereulide concentration in fecal samples, maximum", "setting": "[1]; oral challenge, SIDA-MS", "result": "up to 5 μg cereulide g^-1 feces"}, {"measurement": "Overall cereulide excretion in feces, % of total amount", "setting": "[1]; single oral dose 30 μg kg^-1, within first 48 h", "result": "up to 13%"}, {"measurement": "Time of first detection in fecal samples post-toxin exposure", "setting": "[1]; single oral dose 150 μg kg^-1", "result": "3 to 4", "unit": "h"}, {"measurement": "Cereulide concentration in urine, maximum", "setting": "[1]; single oral dose 150 μg kg^-1, SIDA-MS", "result": "up to 2 ng cereulide mL^-1 urine"}, {"measurement": "Overall cereulide excretion in feces, % of total quantity administered", "setting": "[1]; single oral dose 150 μg kg^-1, within first 48 h", "result": "up to 15%"}, {"measurement": "Time of highest toxin amounts excreted with feces", "setting": "[1]; single oral dose 150 μg kg^-1, exception one pig that did not defecate over 20 h", "result": "16 to 24", "unit": "h"}, {"measurement": "Detectability of cereulide in urine", "setting": "[1]; single oral doses 10 μg kg^-1/30 μg kg^-1, SIDA-MS", "result": "not from animals challenged with lower cereulide doses"}, {"measurement": "Cereulide orally administered that is shed with feces", "setting": "[1]; within the first 48 h, acute trials", "result": "10–15%"}, {"measurement": "Pulse and respiration rates, inner body temperature", "setting": "Large White piglets; all animals, except during periods of seizures and convulsions", "result": "normal pulse and respiration rates as well as inner body temperature"}, {"measurement": "Onset of seizures", "setting": "Large White piglets; daily oral dose 10 μg kg^-1 for 7 days, all four pigs to varying extents", "result": "2 to 4", "unit": "h"}, {"measurement": "Onset of transient depressiveness", "setting": "Large White piglets; daily oral dose 10 μg kg^-1 for 7 days, all piglets", "result": "2 to 6", "unit": "h"}, {"measurement": "Emesis in the pigs", "setting": "Large White piglets; oral doses 10 to 150 μg kg^-1", "result": "only rarely observed"}, {"measurement": "Onset of observed symptoms in the piglets", "setting": "Large White piglets; [6]", "result": "1.5 to 3", "unit": "h"}, {"measurement": "Time after which symptoms ceased", "setting": "Large White piglets; [6]", "result": "7 to 9", "unit": "h"}, {"measurement": "Duration of transient depressive behavior", "setting": "Large White piglets; single oral dose 10 μg kg^-1, all treated piglets", "result": "4.5 to 6", "unit": "h"}, {"measurement": "Time of vomiting after toxin intake", "setting": "Large White piglets; single oral dose 10 μg kg^-1, one animal", "result": 11, "unit": "h"}, {"measurement": "Time after which all symptoms disappeared", "setting": "Large White piglets; single oral dose 30 μg kg^-1", "result": "7 to 9", "unit": "h"}, {"measurement": "Onset of shivering", "setting": "Large White piglets; single oral dose 30 μg kg^-1, 2/4 piglets, seizures an additional hour later", "result": 1, "unit": "h"}, {"measurement": "Onset of seizures after cereulide intake", "setting": "Large White piglets; single oral dose 30 μg kg^-1, remaining two piglets", "result": "4 to 6", "unit": "h"}, {"measurement": "Onset of lethargic behavior", "setting": "Large White piglets; single oral dose 150 μg kg^-1, all treated piglets", "result": "1.5 to 2", "unit": "h"}, {"measurement": "Time to gradual recovery", "setting": "Large White piglets; single oral dose 150 μg kg^-1, three of the four piglets", "result": "6 to 7", "unit": "h"}, {"measurement": "Low concentrations directly effecting the insulin secretory machinery", "setting": "[2]", "result": "0.25 to 0.5", "unit": "ng/mL"}, {"measurement": "log Kow", "setting": "[3]", "result": 5.96}, {"measurement": "Stability to enzymatic cleavage", "setting": "[4]; gastro-intestinal passage", "result": "resistance to enzymatic cleavage"}, {"measurement": "Temperature and pH stability", "setting": "[4]", "result": "high temperature and pH stability"}]}
